Measurements as given in paper PMC12146700 (Proceedings of the National Academy of Sciences of the …, 2025).
Where a chain is given by its changes, count along the chain named.

How the values were obtained:
[1] = target: T1, WT ATP8B1 fragment (residues 803 to 880) (Homo sapiens, UniProt O43520); assay: surface plasmon resonance, protein covalently coupled on CM5 chip; format: binding; conditions: PIP2 injected at different concentrations; acyl chains not told
T1 sequence (O43520 803-880): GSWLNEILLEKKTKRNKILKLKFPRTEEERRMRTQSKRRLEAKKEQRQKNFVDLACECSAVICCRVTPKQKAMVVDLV

[2] = target: T2, WT ATP8B1 fragment (residues 803 to 880) (Homo sapiens, UniProt O43520, K824A/R832A/R833A/R835A); assay: as above; format: binding; conditions: PIP2 injected at different concentrations; acyl chains not told
T2 sequence (O43520 803-880 K824A/R832A/R833A/R835A): T1 sequence (O43520 803-880) with K22A, R30A, R31A, R33A

[3] = target: T3, human ATP8B1 (full-length, N-terminal GST-tagged) (Homo sapiens, UniProt O43520); assay: ATPase activity stimulated by phospholipid; format: biochemical; conditions: activation of ATPase activity; acyl chains not told
T3 sequence (O43520 1-1251): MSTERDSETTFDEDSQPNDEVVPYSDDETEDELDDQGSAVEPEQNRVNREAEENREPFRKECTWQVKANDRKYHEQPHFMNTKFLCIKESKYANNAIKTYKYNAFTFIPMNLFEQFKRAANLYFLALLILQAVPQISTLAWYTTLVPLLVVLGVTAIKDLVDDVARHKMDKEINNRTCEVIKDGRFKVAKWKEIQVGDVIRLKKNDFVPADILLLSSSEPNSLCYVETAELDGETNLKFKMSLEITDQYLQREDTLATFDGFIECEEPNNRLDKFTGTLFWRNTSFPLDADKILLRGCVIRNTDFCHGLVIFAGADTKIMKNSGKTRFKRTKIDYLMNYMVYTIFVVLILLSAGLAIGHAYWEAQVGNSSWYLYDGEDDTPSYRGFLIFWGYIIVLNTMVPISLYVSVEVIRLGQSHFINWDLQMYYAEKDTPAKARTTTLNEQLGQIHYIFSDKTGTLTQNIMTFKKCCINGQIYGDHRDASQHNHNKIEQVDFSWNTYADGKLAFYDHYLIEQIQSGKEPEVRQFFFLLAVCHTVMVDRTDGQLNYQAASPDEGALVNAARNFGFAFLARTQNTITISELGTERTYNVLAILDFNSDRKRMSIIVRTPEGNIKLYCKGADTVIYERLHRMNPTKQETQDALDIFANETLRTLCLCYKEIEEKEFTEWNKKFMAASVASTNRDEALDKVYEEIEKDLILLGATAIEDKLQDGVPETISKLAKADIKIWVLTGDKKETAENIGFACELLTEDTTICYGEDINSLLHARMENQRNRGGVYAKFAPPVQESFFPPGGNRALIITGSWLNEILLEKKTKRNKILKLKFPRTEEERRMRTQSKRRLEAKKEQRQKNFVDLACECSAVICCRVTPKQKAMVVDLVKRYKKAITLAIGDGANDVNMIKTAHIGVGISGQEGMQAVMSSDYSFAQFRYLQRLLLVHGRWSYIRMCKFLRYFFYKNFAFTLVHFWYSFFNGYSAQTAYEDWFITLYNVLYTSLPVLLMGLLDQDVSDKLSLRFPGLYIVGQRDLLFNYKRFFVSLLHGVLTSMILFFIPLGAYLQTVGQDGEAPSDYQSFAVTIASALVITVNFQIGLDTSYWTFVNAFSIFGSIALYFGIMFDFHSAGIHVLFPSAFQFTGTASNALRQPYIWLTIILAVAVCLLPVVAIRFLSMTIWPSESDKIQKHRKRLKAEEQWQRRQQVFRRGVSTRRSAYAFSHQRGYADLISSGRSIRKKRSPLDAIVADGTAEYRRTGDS

Which Kd [1] does the source give for PIP2 here?
The Kd was about 11.5 µM.

And the Kd [2]?
The Kd was about 63.6 µM.

What about the EC50 [3] of the same substance?
Its EC50 is 232 ± 35.2 µM.
